The source of these data is PubChem BioAssay (NCI).

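Dose response: 5 concentrations. Exposure: 48 h. Format: 96-well plates. Endpoint: linear interpolation; highest concentration if not reached. TGI is the concentration that stops growth completely.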 Some results are limits rather than exact numbers.

For the first test, the system named is HCT-15 colon. In words: inhibition of tumour cell growth, NCI panel, 48 h.
Consider `CC(C)(C)c1cc(/C=C2/NC(=O)NC2=O)cc(C(C)(C)C)c1O`, for which the TGI was found to be 28.2 µM.

`COc1cccc(N2C(=O)CS(=O)(=O)C2c2cccc(Oc3ccccc3)c2)c1` (configuration not stated) showed a TGI of over 100 µM.

As to `O=C(/C=C\Nc1ccccc1O)C(F)(F)F`, the TGI was over 100 µM.

`CC1(C)OC[C@@H](C[C@H](O)COCc2ccccc2)O1` came in with a TGI of over 100 µM.

Turning to `NC(N)=NS(=O)(=O)c1ccc(NC(=O)c2cccc3c(NNc4ccc(S(N)(=O)=O)cc4)c4ccccc4nc23)cc1`, the TGI was over 100 µM.

Consider `Nc1nncc2[nH]cnc12`, for which the TGI is over 100 µM.

Turning to `CN(C)CCNc1c([N+](=O)[O-])sc2ccc(Cl)cc12`, the TGI was over 100 µM.

Take `CCOC(=O)Cn1nnc2cc(Nc3c(C)[n+]([O-])c4cc(F)c(OCC)cc4[n+]3[O-])ccc21`: the TGI is over 100 µM.

Take `O=[N+]([O-])/C(Cl)=C(/C(Cl)=C(Cl)Cl)N1CCCCC1`: the TGI came out at 19.1 µM.

In turn, `COc1ccc2c(c1)-c1c(c3cc(OC)ccc3n1CCN(C)C)CC2` yielded a TGI of 28.9 µM.

The molecule `NCCN(CCN(C(=O)Nc1ccccc1)c1ccccc1)C(=O)Nc1ccccc1` registered a TGI of 76.4 µM.

`O=C1c2cccnc2S(=O)(=O)N1c1ccc([N+](=O)[O-])cc1` showed a TGI of over 100 µM.

`CC1CCc2sc3nc4n(c(=O)c3c2C1)CC(C)S4` (configuration not stated) came in with a TGI of over 100 µM.

On to `N#Cc1nc(CCCN2C(=O)c3ccccc3C2=O)oc1N`, for which the TGI was over 100 µM.

The next test has as its system A498 renal. Briefly: inhibition of tumour cell growth, NCI panel, 48 h.
Turning to `O=CN1CCN(C(=O)c2ccco2)C1=S`, the TGI amounted to 39.7 µM.

As for `CC(=O)C1(O)CCC2(O)C3(O)CC=C4CC(O)CCC4(C)C3CC(OC(=O)c3ccc(O)cc3)C12C` (configuration not stated), the TGI was over 100 µM.

As to `Cn1c2c(c3ccccc31)CCN1C(=O)C34CCCC3CC21S4` (configuration not stated), the TGI is over 100 µM.

`Clc1ccc(OCc2nnc(COc3ccc(OCc4nnc(COc5ccc(Cl)cc5Cl)o4)c(Cl)c3)o2)c(Cl)c1` came in with a TGI of over 100 µM.

The molecule `O=C1/C(=C/c2ccncc2)C(n2cccc2)c2c(Br)sc(Br)c21` (configuration not stated) yielded a TGI of 39 µM.

The molecule `COCC#C[C@@]1(O)CCCCC1CC(OC)OC` (some centres not stated) gave a TGI of over 100 µM.

In turn, `C=C1CC(COc2ccc3c(C)c(C)c(=O)oc3c2C)(c2ccccc2)OC1=O` (configuration not stated) gave a TGI of 12.5 µM.

Molecule `CC(=O)OCC(=O)O[C@@H]1[C@H]2[C@@H](OC(=O)c3ccccc3)[C@@H](C)C[C@]2(O)[C@H](OC(C)=O)[C@@]2(C)C[C@]1(OC(C)=O)C[C@H]1C(=O)C(C)(C)[C@@H](OC(C)=O)[C@@H]12` gave a TGI of over 23.8 µM.

In turn, `O=C(Sc1c(-c2ccccc2)c(=O)n(-c2ccccc2)c(=S)n1-c1ccccc1)c1ccco1` returned a TGI of over 100 µM.

With `Cn1nc2c(c1N)Cc1c(nn(C)c1N)-c1ccccc1-2`, the TGI was over 100 µM.

`O=c1ccn(-c2ccccn2)c(=O)n1-c1ccccn1` came in with a TGI of over 100 µM.

`O=C1NC(=S)NC(=O)C1C(c1ccc(Cl)cc1)C1C(=O)NC(=S)NC1=O` had a TGI of over 100 µM.

In turn, `COC(=O)C1=C(C(=O)OC)SC(=C2SC3=C(SC(=C4SCCS4)S3)S2)S1` came in with a TGI of over 100 µM.

`Cc1nnc2n1-c1ccccc1N(Cc1ccccc1)CC2` registered a TGI of over 100 µM.

For `CC(C)(C)c1cc(/C=C2/NC(=O)NC2=O)cc(C(C)(C)C)c1O`, the TGI came to 27 µM.

Molecule `COc1cccc(N2C(=O)CS(=O)(=O)C2c2cccc(Oc3ccccc3)c2)c1` (configuration not stated) returned a TGI of 36.7 µM.

`CC1(C)OC[C@@H](C[C@H](O)COCc2ccccc2)O1` returned a TGI of over 100 µM.

Consider `Nc1nncc2[nH]cnc12`, for which the TGI was over 100 µM.

With `CN(C)CCNc1c([N+](=O)[O-])sc2ccc(Cl)cc12`, the TGI was over 100 µM.

Consider `CCOC(=O)Cn1nnc2cc(Nc3c(C)[n+]([O-])c4cc(F)c(OCC)cc4[n+]3[O-])ccc21`, for which the TGI is over 100 µM.

The molecule `O=[N+]([O-])/C(Cl)=C(/C(Cl)=C(Cl)Cl)N1CCCCC1` returned a TGI of 33.4 µM.

The molecule `COc1ccc2c(c1)-c1c(c3cc(OC)ccc3n1CCN(C)C)CC2` returned a TGI of 24.1 µM.

In turn, `NCCN(CCN(C(=O)Nc1ccccc1)c1ccccc1)C(=O)Nc1ccccc1` had a TGI of 40.5 µM.

Regarding `O=C1c2cccnc2S(=O)(=O)N1c1ccc([N+](=O)[O-])cc1`, the TGI is over 100 µM.

The test system of a further test is T-47D breast. In words: inhibition of tumour cell growth, NCI panel, 48 h.
In turn, `O=CN1CCN(C(=O)c2ccco2)C1=S` displayed a TGI of 19.3 µM.

In turn, `CC(=O)C1(O)CCC2(O)C3(O)CC=C4CC(O)CCC4(C)C3CC(OC(=O)c3ccc(O)cc3)C12C` (configuration not stated) had a TGI of over 100 µM.

The molecule `Cn1c2c(c3ccccc31)CCN1C(=O)C34CCCC3CC21S4` (configuration not stated) had a TGI of over 100 µM.

For `Clc1ccc(OCc2nnc(COc3ccc(OCc4nnc(COc5ccc(Cl)cc5Cl)o4)c(Cl)c3)o2)c(Cl)c1`, the TGI is over 100 µM.

`O=C1/C(=C/c2ccncc2)C(n2cccc2)c2c(Br)sc(Br)c21` (configuration not stated) gave a TGI of 16.4 µM.

As for `COCC#C[C@@]1(O)CCCCC1CC(OC)OC` (some centres not stated), the TGI was over 100 µM.

As for `C=C1CC(COc2ccc3c(C)c(C)c(=O)oc3c2C)(c2ccccc2)OC1=O` (configuration not stated), the TGI was found to be 4.96 µM.

`CC(=O)OCC(=O)O[C@@H]1[C@H]2[C@@H](OC(=O)c3ccccc3)[C@@H](C)C[C@]2(O)[C@H](OC(C)=O)[C@@]2(C)C[C@]1(OC(C)=O)C[C@H]1C(=O)C(C)(C)[C@@H](OC(C)=O)[C@@H]12`: the TGI is over 25 µM.

In turn, `O=C(Sc1c(-c2ccccc2)c(=O)n(-c2ccccc2)c(=S)n1-c1ccccc1)c1ccco1` returned a TGI of over 100 µM.

In the case of `Cn1nc2c(c1N)Cc1c(nn(C)c1N)-c1ccccc1-2`, the TGI was over 100 µM.

Consider `O=c1ccn(-c2ccccn2)c(=O)n1-c1ccccn1`, for which the TGI was over 100 µM.

The molecule `O=C1NC(=S)NC(=O)C1C(c1ccc(Cl)cc1)C1C(=O)NC(=S)NC1=O` yielded a TGI of over 100 µM.

The molecule `COC(=O)C1=C(C(=O)OC)SC(=C2SC3=C(SC(=C4SCCS4)S3)S2)S1` displayed a TGI of over 100 µM.

On to `Cc1nnc2n1-c1ccccc1N(Cc1ccccc1)CC2`, for which the TGI was over 100 µM.

The molecule `CC(C)(C)c1cc(/C=C2/NC(=O)NC2=O)cc(C(C)(C)C)c1O` gave a TGI of 11.8 µM.

`COc1cccc(N2C(=O)CS(=O)(=O)C2c2cccc(Oc3ccccc3)c2)c1` (configuration not stated) gave a TGI of 81.1 µM.

On to `O=C(/C=C\Nc1ccccc1O)C(F)(F)F`, for which the TGI is over 100 µM.

Take `CC1(C)OC[C@@H](C[C@H](O)COCc2ccccc2)O1`: the TGI is over 100 µM.

The molecule `NC(N)=NS(=O)(=O)c1ccc(NC(=O)c2cccc3c(NNc4ccc(S(N)(=O)=O)cc4)c4ccccc4nc23)cc1` returned a TGI of 79.1 µM.

For `Nc1nncc2[nH]cnc12`, the TGI is over 100 µM.

`CN(C)CCNc1c([N+](=O)[O-])sc2ccc(Cl)cc12` displayed a TGI of over 100 µM.

In the case of `CCOC(=O)Cn1nnc2cc(Nc3c(C)[n+]([O-])c4cc(F)c(OCC)cc4[n+]3[O-])ccc21`, the TGI is over 100 µM.

`O=[N+]([O-])/C(Cl)=C(/C(Cl)=C(Cl)Cl)N1CCCCC1` returned a TGI of 34 µM.

The molecule `COc1ccc2c(c1)-c1c(c3cc(OC)ccc3n1CCN(C)C)CC2` displayed a TGI of 41 µM.

On to `NCCN(CCN(C(=O)Nc1ccccc1)c1ccccc1)C(=O)Nc1ccccc1`, for which the TGI turned out to be 90.8 µM.

Molecule `O=C1c2cccnc2S(=O)(=O)N1c1ccc([N+](=O)[O-])cc1` returned a TGI of over 100 µM.

The molecule `CC1CCc2sc3nc4n(c(=O)c3c2C1)CC(C)S4` (configuration not stated) registered a TGI of over 100 µM.

`N#Cc1nc(CCCN2C(=O)c3ccccc3C2=O)oc1N` had a TGI of over 100 µM.

A further test concerns OVCAR-3 ovarian. In words: inhibition of tumour cell growth, NCI panel, 48 h.
`O=CN1CCN(C(=O)c2ccco2)C1=S` came in with a TGI of 15.4 µM.
